Test results taken from patent US20230255953A1, “USE OF ROLUPERIDONE IN PREVENTING RELAPSE IN SCHIZOPHRENIA PATIENTS” (Minerva Neurosciences, Inc., priority 2022, published 2023).

What was measured:
[1] = biological target: T1, α1A-adrenergic (Homo sapiens, UniProt P35348); conditions: background statement; cited from earlier work
T1 sequence (P35348 1-466): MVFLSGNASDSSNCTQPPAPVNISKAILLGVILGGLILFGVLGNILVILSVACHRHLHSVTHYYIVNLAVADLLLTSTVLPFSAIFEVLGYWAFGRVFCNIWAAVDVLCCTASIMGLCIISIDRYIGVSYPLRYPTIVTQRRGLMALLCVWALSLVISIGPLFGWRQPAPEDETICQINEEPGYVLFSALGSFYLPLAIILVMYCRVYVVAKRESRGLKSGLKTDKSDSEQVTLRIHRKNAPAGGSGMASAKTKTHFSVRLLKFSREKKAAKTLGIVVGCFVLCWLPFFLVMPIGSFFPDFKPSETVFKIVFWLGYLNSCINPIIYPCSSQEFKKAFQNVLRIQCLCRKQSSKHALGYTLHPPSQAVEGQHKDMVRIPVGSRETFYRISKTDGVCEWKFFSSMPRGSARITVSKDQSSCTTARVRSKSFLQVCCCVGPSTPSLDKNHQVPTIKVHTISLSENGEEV

[2] = test system: patients with negative symptoms of schizophrenia; assay: Integrated analysis (pooled ITT): PSP Total score; type: in vivo, human; design: key to PSP Total score, LS mean change from Baseline compared with placebo / PSP Total Score change from Baseline, Median: change in PSP Total score (scale 1-100, higher = better functioning); conditions: for PSP Total Score change from Baseline, LS mean (SE) / PSP Total Score change from Baseline, Mean (SD) / PSP Total Score change from Baseline, Median / PSP Total Score, Difference (95% CI) in LS mean (vs placebo): DB; for PSP Total Score change from Baseline, LS mean (SE) / PSP Total Score change from Baseline, Mean (SD) / PSP Total Score change from Baseline, Median / PSP Total Score, Difference (95% CI) in LS mean (vs placebo) / PSP Total score, LS mean change from Baseline compared with placebo: pooled ITT; for PSP Domain Disturbing and Aggressive Behavior, Change from Baseline (LS Means [SEM]) / PSP Domain Personal and Social Relationships, Change from Baseline (LS Means [SEM]) / PSP Domain Self-Care, Change from Baseline (LS Means [SEM]) / PSP Domain Socially Useful Activities, Change from Baseline (LS Means [SEM]) / PSP Total Score, Change from Baseline (LS Means [SEM]): ITT; for Patients with high improvement in PSP Total score (magnitude of change ≥10) / Patients with moderate improvement in PSP Total score (magnitude of change 7-9) / Patients with moderate or high improvement in PSP Total score, total: pooled; for Patients with 7-Point Improvement in PSP Total Score at Week 12, percent / Number of Patients with 7-Point improvement in PSP Total Score at Week 12: responder analysis; for Number of Patients with 7-Point improvement in PSP Total Score at Week 12: n/N
Text: The primary integrated analysis of the efficacy of Roluperidone compared with placebo for the treatment of negative symptoms of schizophrenia is based on the change from Baseline in the PANSS Marder's negative symptoms factor score (in this document referred to as NSFS) to Week 12. Efficacy is also supported by the analysis of change from Baseline in the PSP Total score and the CGI-S to Week 12.
The PSP is a validated clinician-rated scale intended to reflect real-life situations that measures personal and social functioning in 4 domains: (a) socially useful activities, (b) personal and social relationships, (c) self-care, and (d) disturbing and aggressive behaviors. The score is based on the assessment of a patient's performance in the 4 domains. The PSP Total score is a single measurement of functioning ranging from 1 to 100, where a higher score represents better functioning. A score of 91 to 100 indicates excellent functioning in all 4 main areas; the patient is held in high consideration for their good qualities, copes adequately with life problems, and is involved in a wide range of interests and activities. A score of 1 to 10 indicates a lack of autonomy in basic functioning with extreme behaviors but without survival risk (score 6 to 10) or with survival risk (score 1 to 5). […] Review of the relevant scientific literature and the analysis of the psychometric properties of the 4 domains that result in the generation of the PSP Total score were supportive of the appropriateness and cross-cultural applicability of the use of the PSP in drug development for the indication of negative symptoms of schizophrenia The PSP was assessed at the timepoints described in Table 6. The changes from Baseline in the PSP Total score and individual domain scores after 12 weeks of treatment were exploratory efficacy endpoints in Study MIN-101C03, and the Total score was the key secondary efficacy endpoint and the PSP domain scores were exploratory endpoints in Study MIN-101C07.
The Efficacy data from Study Nos. 1 and 2 were pooled. The majority of patients in the pooled ITT population completed the DB period (502 patients overall, 66.3%), with similar rates in each treatment group (placebo: 69.8%, 32 mg Roluperidone: 65.3%, and 64 mg Roluperidone: 63.8%) (Table 12). The majority (62.7%) of those who completed the DB period entered the OL period. The most common reason for discontinuation during the DB period among patients overall was withdrawal of consent (15.6%), followed by adverse events (7.3%) and lack of efficacy (5.4%) (Table 12). […] Approximately twice as many patients in the Roluperidone groups (32 mg: 8.5%; 64 mg: 9.1%) discontinued due to adverse events compared with patients in the placebo group (4.3%). More patients in the placebo group discontinued due to lack of efficacy (6.7%) than in the Roluperidone groups (32 mg: 4.4%; 64 mg: 5.1%). The low number of patients who discontinued due to lack of efficacy or withdrawal of consent probably reflects a low level of worsening of positive symptoms.
The integrated analysis supporting the efficacy of Roluperidone as a treatment for the negative symptoms of schizophrenia in adults is presented below.

1H-Isoindol-1-one,2-[ [1-[2-(4-fluorophenyl)-2-oxoethyl]-4-piperidinyl]methyl]-2,3-dihydro-, hydrochloride, hydrate (1:1:2) [Roluperidone]
Antagonistic activity [1]: antagonistic activities | PSP Total Score change from Baseline, LS mean (SE) ([2]; 32 mg, Week 4): 1.6 (0.52) | PSP Total Score change from Baseline, Mean (SD) ([2]; 32 mg, Week 4): 1.5 (7.87) | PSP Total Score change from Baseline, Median ([2]; 32 mg, Week 4): 0.0 | PSP Total Score, Difference (95% CI) in LS mean (vs placebo) ([2]; 32 mg, Week 4): 0.7 | PSP Total Score change from Baseline, LS mean (SE) ([2]; 32 mg, Week 8): 2.9 (0.62) | PSP Total Score change from Baseline, Mean (SD) ([2]; 32 mg, Week 8): 3.6 (7.04) | PSP Total Score change from Baseline, Median ([2]; 32 mg, Week 8): 2.0 | PSP Total Score, Difference (95% CI) in LS mean (vs placebo) ([2]; 32 mg, Week 8): 0.6 | PSP Total Score change from Baseline, LS mean (SE) ([2]; 32 mg, Week 12): 3.3 (0.71) | PSP Total Score change from Baseline, Mean (SD) ([2]; 32 mg, Week 12): 3.5 (10.03) | PSP Total Score change from Baseline, Median ([2]; 32 mg, Week 12): 2.0 | PSP Total Score, Difference (95% CI) in LS mean (vs placebo) ([2]; 32 mg, Week 12): 0.5 | PSP Domain Disturbing and Aggressive Behavior, Change from Baseline (LS Means [SEM]) ([2]; 32 mg, Week 12): −0.1 (0.04) | PSP Domain Personal and Social Relationships, Change from Baseline (LS Means [SEM]) ([2]; 32 mg, Week 12): −0.3 (0.05) | PSP Domain Self-Care, Change from Baseline (LS Means [SEM]) ([2]; 32 mg, Week 12): −0.3 (0.05) | PSP Domain Socially Useful Activities, Change from Baseline (LS Means [SEM]) ([2]; 32 mg, Week 12): −0.3 (0.05) | PSP Total Score, Change from Baseline (LS Means [SEM]) ([2]; 32 mg, Week 12): 3.3 (0.71) | PSP Total score, LS mean change from Baseline compared with placebo ([2]; 32 mg, Week 12): 0.5 | Patients with high improvement in PSP Total score (magnitude of change ≥10) ([2]; 32 mg): 26% | Patients with moderate improvement in PSP Total score (magnitude of change 7-9) ([2]; 32 mg): 7% | Patients with moderate or high improvement in PSP Total score, total ([2]; 32 mg): 33% | Patients with 7-Point Improvement in PSP Total Score at Week 12, percent ([2]; 32 mg): 33% | Number of Patients with 7-Point improvement in PSP Total Score at Week 12 ([2]; 32 mg): 54/166 | PSP Total Score change from Baseline, LS mean (SE) ([2]; 64 mg, Week 4): 3.1 (0.52) | PSP Total Score change from Baseline, Mean (SD) ([2]; 64 mg, Week 4): 3.1 (8.33) | PSP Total Score change from Baseline, Median ([2]; 64 mg, Week 4): 1.0 | PSP Total Score, Difference (95% CI) in LS mean (vs placebo) ([2]; 64 mg, Week 4): 2.1 | PSP Total Score change from Baseline, LS mean (SE) ([2]; 64 mg, Week 8): 4.9 (0.61) | PSP Total Score change from Baseline, Mean (SD) ([2]; 64 mg, Week 8): 4.8 (6.61) | PSP Total Score change from Baseline, Median ([2]; 64 mg, Week 8): 3.0 | PSP Total Score, Difference (95% CI) in LS mean (vs placebo) ([2]; 64 mg, Week 8): 2.6 | PSP Total Score change from Baseline, LS mean (SE) ([2]; 64 mg, Week 12): 6.4 (0.69) | PSP Total Score change from Baseline, Mean (SD) ([2]; 64 mg, Week 12): 6.4 (10.32) | PSP Total Score change from Baseline, Median ([2]; 64 mg, Week 12): 4.5 | PSP Total Score, Difference (95% CI) in LS mean (vs placebo) ([2]; 64 mg, Week 12): 3.6 | PSP Domain Disturbing and Aggressive Behavior, Change from Baseline (LS Means [SEM]) ([2]; 64 mg, Week 12): −0.0 (0.04) | PSP Domain Personal and Social Relationships, Change from Baseline (LS Means [SEM]) ([2]; 64 mg, Week 12): −0.4 (0.05) | PSP Domain Self-Care, Change from Baseline (LS Means [SEM]) ([2]; 64 mg, Week 12): −0.3 (0.05) | PSP Domain Socially Useful Activities, Change from Baseline (LS Means [SEM]) ([2]; 64 mg, Week 12): −0.4 (0.05) | PSP Total Score, Change from Baseline (LS Means [SEM]) ([2]; 64 mg, Week 12): 6.4 (0.69) | PSP Total score, LS mean change from Baseline compared with placebo ([2]; 64 mg, Week 12): 3.6 | Patients with high improvement in PSP Total score (magnitude of change ≥10) ([2]; 64 mg): 36% | Patients with moderate improvement in PSP Total score (magnitude of change 7-9) ([2]; 64 mg): 7% | Patients with moderate or high improvement in PSP Total score, total ([2]; 64 mg): 43% | Patients with 7-Point Improvement in PSP Total Score at Week 12, percent ([2]; 64 mg): 43% | Number of Patients with 7-Point improvement in PSP Total Score at Week 12 ([2]; 64 mg): 76/176 | PSP Total Score change from Baseline, Mean (SD) ([2]; Roluperidone Total, Week 4): 2.3 (8.14) | PSP Total Score change from Baseline, Median ([2]; Roluperidone Total, Week 4): 0.0 | PSP Total Score change from Baseline, Mean (SD) ([2]; Roluperidone Total, Week 8): 4.2 (6.84) | PSP Total Score change from Baseline, Median ([2]; Roluperidone Total, Week 8): 3.0 | PSP Total Score change from Baseline, Mean (SD) ([2]; Roluperidone Total, Week 12): 5.0 (10.27) | PSP Total Score change from Baseline, Median ([2]; Roluperidone Total, Week 12): 3.0
